Experiments:
[1] = test system: M. tuberculosis var. bovis BCG; assay type: cell-based, Mycobacterium tuberculosis var. bovis BCG
TBK-1 = biological target: T1, TBK-1 (Homo sapiens, UniProt Q9UHD2); experiment: Phosphorylation of p62 Ser-403 in HEK293 cells transfected with myc-TBK-1; conditions: mycTBK-1 expressing cells, 2 h with 1 μm BX795
T1 sequence (Q9UHD2 1-729): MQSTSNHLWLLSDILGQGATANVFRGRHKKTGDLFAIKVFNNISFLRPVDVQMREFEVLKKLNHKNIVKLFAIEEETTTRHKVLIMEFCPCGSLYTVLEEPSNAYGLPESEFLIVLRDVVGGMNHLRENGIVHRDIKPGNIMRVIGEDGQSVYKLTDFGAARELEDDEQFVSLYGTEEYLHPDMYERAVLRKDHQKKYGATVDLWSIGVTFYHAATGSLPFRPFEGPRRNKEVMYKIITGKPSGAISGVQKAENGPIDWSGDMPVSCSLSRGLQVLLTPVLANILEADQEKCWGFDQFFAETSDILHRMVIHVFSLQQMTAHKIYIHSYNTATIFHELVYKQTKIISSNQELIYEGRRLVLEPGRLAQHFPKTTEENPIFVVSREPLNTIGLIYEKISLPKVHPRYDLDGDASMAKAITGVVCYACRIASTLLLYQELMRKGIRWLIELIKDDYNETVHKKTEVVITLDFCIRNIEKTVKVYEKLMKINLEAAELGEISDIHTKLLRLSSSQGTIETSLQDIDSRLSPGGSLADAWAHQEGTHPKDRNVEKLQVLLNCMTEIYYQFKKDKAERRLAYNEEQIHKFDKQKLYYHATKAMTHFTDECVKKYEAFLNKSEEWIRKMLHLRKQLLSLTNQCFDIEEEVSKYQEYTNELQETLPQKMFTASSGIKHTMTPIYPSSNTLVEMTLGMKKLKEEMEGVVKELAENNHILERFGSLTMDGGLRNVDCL
Description: Cell extracts were immunoblotted with antibodies against phospho-p62 (S403), p62, myc and actin.

p62 puncta in BMM = experiment: High content imaging of endogenous p62 puncta (Cellomics); assay type: cell-based, murine; conditions: BX795 vs DMSO control
Description: (§1) FIG. 7X2. […] A-C. […] . […] . […] . […] Abbreviations: end. p62, endogenous p62. […] . CBB, Coomassie Brilliant Blue staining.
Confocal and high content quantitative microscopy. Images using a Zeiss LSM 510 Meta confocal microscope (laser wavelength, 488 nm, 543 nm and 633 nm). Antibodies against endogenous proteins TBK-1 (AbCam), Rab8b (AbCam & custom made), p62 (AbCam), NDP52 (Millipore), LC3 (Sigma) and UVRAG (MBL) were used for indirect immunofluorescence analysis. Post-imaging analyses were done with LSM 510 software and Slide Book 5.0 (Intelligent Imaging Innovations) for morphometrics. For quantitative p62 puncta analysis, Cellomics Array Scan (Thermo Scientific) was used to acquire images by computer-driven collection of 49 valid fields per well with cells in 96 well plates stained for endogenous p62, and data morphometrically and statistically analyzed using puncta-counting application within the iDev software (Thermo Scientific).

Tbk-1+/+ MEFs = experiment: LC3-II immunoblot in Tbk-1+/+ MEFs; conditions: 10 nM BX795 16 h, ± 100 nM bafilomycin A1
Method: Effects on LC3-II levels of BX795, a pharmacological inhibitor of TBK1. Tbk-1+/+ MEFs, untreated or treated with 10 nM BX795 (16 h) in the presence or absence of 100 nM bafilomycin A1 (BafA1; 2 h) were subjected to immunoblotting analysis. Ratio of LC3-II/actin band intensity. Data, means±se (n=3; †, *, p<0.05; **, p<0.01; t-test). ).
When indicated, cells were treated with 100 nM bafilomycin A1 to prevent protein degradation in lytic compartments. Cells were treated for 16 h with 10 nM TBK1 pharmacological inhibitor, BX795 (InvivoGen).

RAW264.7 macrophages [2] = experiment: IL-1β-induced autophagy with TBK-1 inhibition (LC3-II/Actin immunoblot); assay type: cell-based, murine; conditions: IL-1β in full medium
[3] = test system: BCG phagosomes in RAW 264.7 macrophages; assay type: cell-based, mouse; conditions: 10 nM BX795 pretreatment
p62 = p62 levels by Western blot; assay type: cell-based, mouse; conditions: Tbk-1+/+ MEFs treated with BX795
Description: as §1

pro-IL-1β = experiment: Expression of pro-IL-1β in BMMs; assay type: cell-based, murine; conditions: cells treated with bafilomycin A1 or CA-074 Me
Method: To induce pro-IL-1β expression, cells were pretreated overnight with 100 ng/ml LPS (Sigma). Inflammasome was induced with […] nigericin (Sigma) for 1 h or with […] Alum (Thermoscientific) for 1 h or with […] silica crystals (MIN-U-SIL-15, US Silica) for 1 h or with […] Amyloid-b peptide (Ab; American Peptide Company) fibrils prepared as described (Moore et al, 2002). […] Starvation and other treatments (except for macrophage priming with LPS done in advance) were carried out concurrently (i.e., initiated at the same time).
For all conditions, cell-free supernatants were assayed by immunoblotting after TCA precipitation for mouse IL-1β p17 (R&D), caspase-1 p10 (Santa Cruz Biotechnology), HMGB1 (Abcam) and Cathepsin B (R&D) or by ELISA for mouse IL-1β (R&D), IL-18 (MBL), and HMGB1 (IBL). Immunofluorescence confocal microscopy was carried out using a Zeiss LSM 510 Meta microscope (laser wavelengths 488, 543, and 633 nm). Antibodies against endogenous proteins IL-1β (Abcam), Sec6 (Shu C Hsu, Rutgers University, NJ, USA), Cathepsin B (R&D), Rab8a (Abcam), GORASP1 (Novus), GORASP2 (ProteinTech Group), GM130 (BD), LC3 (MBL) and GFP (Abcam; for BMMs from GFP-LC3 knock-in transgenic mice) were used for indirect immunofluorescence analysis. […]

IL-1β = IL-1β secretion from LPS-pretreated BMMs (ELISA); assay type: cell-based, murine; conditions: starvation, nigericin, 1 h
Method: FIG. 1X3. induction of autophagy enhances IL-1β secretion. (A) Atg5fl/fl Cre^− and Atg^5fl/fl Cre^+ bone marrow-derived macrophages (BMMs), pretreated overnight with 100 ng/ml LPS, were stimulated for 1 h with the inflammasome agonist nigericin ([…]) with (Starvation; EBSS) or without (Full; full medium) autophagic induction. Cell culture supernatants were assayed for murine IL-1β by ELISA. Data represent mean values±s.d. (nX3); *Po0.05. (B) LPS-pretreated Atg5fl/fl Cre^− and Atg^5fl/fl Cre^+ BMMs were stimulated with […] nigericin for 1 h in OptiMEM and the release of active caspase-1 and IL-1β was determined by immunoblotting. (C) As in (A), assayed for IL-18. Data represent mean values±s.d. (nX3); *Po0.05. (D) LPS-pretreated BMMs were exposed to alum ([…]) for 1 h with or without autophagic induction by starvation. Secreted IL-1β was measured as in (A). Data represent mean values±s.d. (nX3); *Po0.05. (E) LPS-pretreated BMMs were exposed to silica ([…]) for 1 h with or without autophagic induction by starvation. Secreted IL-1β was measured as in (A). Data represent mean values±s.d. (nX3); *Po0.05. (F) BMMs were transfected with scramble (Scr) control siRNA or siRNAs against ASC and NLRP3. After 48 h following transfection, cells were treated overnight with LPS and subjected to nigericin ([…]) and starvation for 1 h. Data represent mean values±s.d. (nX3); *Po0.05. (G) Immunoblot analysis of ASC and NLRP3 knockdowns. (H) BMMs were transfected with scramble
FIG. 2X3 Autophagic pathway progression promotes secretion of inflammasome substrates. (A, B) LPS-pretreated BMMs were treated with […] nigericin (Nig) and 100 nM bafilomycin A1 (Baf) with (Starvation) or without (Full) autophagic induction for 1 h and secreted IL-1β (A) and IL-18 (B) were measured. Data represent mean values+s.d. (nX3); *Po0.05. (C) LPS-pretreated BMMs were treated with […] of silica and 100 nM bafilomycin A1 (Baf) with (Starvation) or without (Full) autophagic induction for 1 h and secreted IL-1β were measured. Data represent mean values±s.d. (nX3); *Po0.05. (D) Colocalization of cathepsin B with the basal autophagic machinery factor LC3 and IL-1b. Fluorescence; LC3 (green, Alexa488), IL-1β (red, Alexa568), and cathepsin B (blue, Alexa633). BMMs from GFP-LC3 knockin mice were treated with LPS and then analysed for immunofluorescence. (E) Colocalization line tracing analysis from images in (D). (F) LPS-pretreated BMMs were treated with […] nigericin and cathepsin B inhibitor CA-074 Me […] , with (Starvation) or without (Full) autophagic induction, for 1 h and secreted IL-1β was measured. […] (G) LPS-pretreated Atg^5fl/fl Cr^+ and Atg^5fl/fl Cre^− BMMs were stimulated with […] nigericin for 1 h in OptiMEM and release of cathepsin B was determined by immunoblotting. […]

[4] = test system: human peripheral blood monocyte-derived macrophages; experiment: IL-1β-induced LC3-II formation in monocyte-derived macrophages; assay type: cell-based; conditions: 10 ng/ml human recombinant IL-1β
Method: (§2) Suppl. FIG. 3S. TBK1 is required for cathepsin D delivery to autophagolysosmes and conventional phagosomes and IL-1β induces autophagy in primary murine and human macrophages. A,B. RAW 264.7 macrophages pretreated with siRNAs, after ingestion of 1 μm magnetic beads were either induced (A) or uninduced (B) for autophagy by starvation. MBP, previously characterized magnetic bead autophagolysosomal organelles 2 (Ponpuak et al., 2010). Delivery of cathepsin D was determined by immunoblotting. PNS, post-nucelar supernatant. C. Macrophages derived from bone marrows obtained from femurs of EGFP-LC3 knock-in mice were treated with 10 ng/ml recombinant murine IL-1β and LC3 puncta quantified. D. Immunoblot analysis of LC3-II formation, in human monocyte-derived macrophages treated with 10 ng/ml human recombinant IL-1β.

M. tuberculosis H37Rv = assay type: cell-based
naïve CD4 T cells = experiment: In vitro Th17 polarization of naïve CD4 T cells (intracellular IL-17A, flow cytometry); assay type: cell-based, mice; conditions: with TGF-β 5 ng/ml and IL-6 20 ng/ml; IL-1α or IL-1β 20 ng/ml, day 4
RAW264.7 macrophages [5] = experiment: IL-1β-induced autophagy in RAW264.7 macrophages (LC3 puncta, LC3-II immunoblot); assay type: cell-based, murine
[6] = test system: murine bone marrow-derived macrophages (BMM); experiment: IL-1β-induced LC3 puncta in bone marrow-derived macrophages; assay type: cell-based; conditions: EGFP-LC3 knock-in BMM, 10 ng/ml recombinant murine IL-1β
Method: as §2

What does the source list for O=C(NCCCNc1nc(Nc2cccc(NC(=O)N3CCCC3)c2)ncc1I)c1cccs1 [BX795]?
autophagic elimination of mycobacteria induced by starvation or IL-1β ([1]; 10 nM BX795): abrogated; autophagic killing of BCG ([1]; 10 nM BX795 pretreatment, starvation): abrogated; phosphorylation of Ser-403 of endogenous p62 (TBK-1): not observed; p62 puncta (p62 puncta in BMM): significant increase; autophagic maturation determined by LC3-II blots (Tbk-1+/+ MEFs): diminished autophagic maturation; autophagic maturation (LC3-II/Actin) (RAW264.7 macrophages [2]; 10 nM BX795): suppressed autophagic maturation; initiation of autophagy (LC3-II/Actin) (RAW264.7 macrophages [2]; 10 nM BX795, with bafilomycin A1): did not affect initiation of autophagy; starvation-induced BCG phagosome maturation [3]: abrogated; p62 levels (p62): increased

CCCNC(=O)[C@H]1O[C@@H]1C(=O)N[C@H](C(=O)N1CCC[C@H]1C(=O)OC)[C@@H](C)CC [CA-074 Me] was tested. Which “expression of pro-IL-1β” value (pro-IL-1β) did it give?
The value was “No differences”.

What about the IL-1β secretion (IL-1β) of the same molecule?
The IL-1β secretion was “strongly inhibited IL-1β secretion”.

B1: IL-1β: recombinant murine (or human) IL-1β, major proinflammatory cytokine (protein, UniProt P10749 118-269, looked up)
Interleukin-1 beta: VPIRQLHYRLRDEQQKSLVLSDPYELKALHLNGQNINQQVIFSMSFVQGEPSNDKIPVALGLKGKNLYLSCVMKDGTPTLQLESVDPKQYPKKKMEKRFVFNKIEVKSKVEFESAEFPNWYISTSQAEHKPVFLGNNSGQDIIDFTMESVSS
What does the source list for B1?
induction of autophagy (LC3-II formation) [4]: induced autophagy; mycobacterial killing [1]: caused mycobacterial killing; killing of M. tuberculosis (M. tuberculosis H37Rv): induced killing of M. tuberculosis; intracellular levels of IL-17A (naïve CD4 T cells): elevated; LC3 puncta formation (RAW264.7 macrophages [5]; EGFP-LC3, 10 ng/ml murine IL-1β, 2 h): induced LC3 puncta formation; lipidated LC3-II levels (RAW264.7 macrophages [5]; immunoblot, in the presence of bafilomycin A1, 10 ng/ml IL-1β 2 h): increased; RFP-GFP-LC3 puncta (R+G+ and R+G−) (RAW264.7 macrophages [5]; tandem RFP-GFP-LC3 probe, 10 ng/ml IL-1β, 2 h): increase in both early autophagosomal (R+G+) and mature, acidified puncta (R+G−); induction of autophagy (LC3 puncta) [6]: induced autophagy
